Experiment: xn = mol fraction of the nth substance listed

[Cl][Al]([Cl])[Cl] + CC[n+]1ccn(C)c1.[Cl-]
101 kPa
Settings	electrical conductivity [S/m]
263 K, frequency 0.1 MHz, x1 = 0.5455	0.14
263 K, frequency 0.1 MHz, x1 = 0.5652	0.13
263 K, frequency 0.1 MHz, x1 = 0.5833	0.57
263 K, frequency 0.1 MHz, x1 = 0.6	0.36
263 K, frequency 0.1 MHz, x1 = 0.6296	0.35
273 K, frequency 0.1 MHz, x1 = 0.5455	0.59
273 K, frequency 0.1 MHz, x1 = 0.5652	0.92
273 K, frequency 0.1 MHz, x1 = 0.5833	0.84
273 K, frequency 0.1 MHz, x1 = 0.6	0.53
273 K, frequency 0.1 MHz, x1 = 0.6296	0.52
283 K, frequency 0.1 MHz, x1 = 0.5238	1.24
283 K, frequency 0.1 MHz, x1 = 0.5455	1.34
283 K, frequency 0.1 MHz, x1 = 0.5652	1.33
283 K, frequency 0.1 MHz, x1 = 0.5833	1.13
283 K, frequency 0.1 MHz, x1 = 0.6	0.73
283 K, frequency 0.1 MHz, x1 = 0.6296	0.73
293 K, frequency 0.1 MHz, x1 = 0.5238	1.58
293 K, frequency 0.1 MHz, x1 = 0.5455	1.81
293 K, frequency 0.1 MHz, x1 = 0.5652	1.73
293 K, frequency 0.1 MHz, x1 = 0.6	0.96
293 K, frequency 0.1 MHz, x1 = 0.6296	0.99
303 K, frequency 0.1 MHz, x1 = 0.5238	2.05
303 K, frequency 0.1 MHz, x1 = 0.5455	2.47
303 K, frequency 0.1 MHz, x1 = 0.5652	2.3
303 K, frequency 0.1 MHz, x1 = 0.5833	1.89
303 K, frequency 0.1 MHz, x1 = 0.6	1.25
303 K, frequency 0.1 MHz, x1 = 0.6296	1.29
303.15 K, frequency 0 MHz, x1 = 0.6	1.92
303.15 K, frequency 0 MHz, x1 = 0.63	1.8
303.15 K, frequency 0 MHz, x1 = 0.67	1.64
306.15 K, frequency 1 MHz, x2 = 0.556	1.46
306.15 K, frequency 1 MHz, x2 = 0.67	0.409
313 K, frequency 0.1 MHz, x1 = 0.5238	2.58
313 K, frequency 0.1 MHz, x1 = 0.5652	2.95
313 K, frequency 0.1 MHz, x1 = 0.5833	2.34
313 K, frequency 0.1 MHz, x1 = 0.6	1.64
313 K, frequency 0.1 MHz, x1 = 0.6296	1.52
323 K, frequency 0.1 MHz, x1 = 0.5238	3.35
323 K, frequency 0.1 MHz, x1 = 0.5455	3.65
323 K, frequency 0.1 MHz, x1 = 0.5652	3.37
323 K, frequency 0.1 MHz, x1 = 0.5833	2.85
323 K, frequency 0.1 MHz, x1 = 0.6	2.18
323 K, frequency 0.1 MHz, x1 = 0.6296	1.83
333 K, frequency 0.1 MHz, x1 = 0.5238	4.09
333 K, frequency 0.1 MHz, x1 = 0.5455	3.96
333 K, frequency 0.1 MHz, x1 = 0.5652	4.11
333 K, frequency 0.1 MHz, x1 = 0.5833	3.04
333 K, frequency 0.1 MHz, x1 = 0.6	2.4
333 K, frequency 0.1 MHz, x1 = 0.6296	2.16
342.1 K, frequency 0.1 MHz, x1 = 0.5238	5.15
343 K, frequency 0.1 MHz, x1 = 0.5455	4.63
343 K, frequency 0.1 MHz, x1 = 0.5652	4.72
343 K, frequency 0.1 MHz, x1 = 0.5833	3.21
343 K, frequency 0.1 MHz, x1 = 0.6	2.82
343 K, frequency 0.1 MHz, x1 = 0.6296	2.49
352.1 K, frequency 0.1 MHz, x1 = 0.5238	6.3
353 K, frequency 0.1 MHz, x1 = 0.5652	5.34
353 K, frequency 0.1 MHz, x1 = 0.5833	4.2
353 K, frequency 0.1 MHz, x1 = 0.6	3.2
353 K, frequency 0.1 MHz, x1 = 0.6296	2.95
362.1 K, frequency 0.1 MHz, x1 = 0.6	3.69
363 K, frequency 0.1 MHz, x1 = 0.5238	6.4
363 K, frequency 0.1 MHz, x1 = 0.5455	5.69
363 K, frequency 0.1 MHz, x1 = 0.5652	5.87
363 K, frequency 0.1 MHz, x1 = 0.5833	4.33
363 K, frequency 0.1 MHz, x1 = 0.6296	3.3

101.3 kPa
Settings	electrical conductivity [S/m]
270.1 K, x2 = 0.3333	0.533
270.4 K, x2 = 0.4348	0.75
270.6 K, x2 = 0.5556	0.36
271.1 K, x2 = 0.3636	0.6
271.1 K, x2 = 0.4	0.702
275.6 K, x2 = 0.4	0.822
275.6 K, x2 = 0.5263	0.832
275.6 K, x2 = 0.5556	0.471
276.1 K, x2 = 0.3333	0.711
276.1 K, x2 = 0.4348	0.901
277.1 K, x2 = 0.3636	0.798
280.6 K, x2 = 0.4348	1.01
281.1 K, x2 = 0.3636	0.946
281.1 K, x2 = 0.4	1.06
281.1 K, x2 = 0.4762	1.18
281.1 K, x2 = 0.5	1.28
281.1 K, x2 = 0.5263	1.03
281.1 K, x2 = 0.5556	0.595
282.1 K, x2 = 0.3333	0.896
288.15 K, x2 = 0.4348	1.34
290.15 K, x2 = 0.3636	1.33
290.15 K, x2 = 0.4762	1.59
290.65 K, x2 = 0.4	1.4
290.65 K, x2 = 0.5263	1.4
290.65 K, x2 = 0.5556	0.87
291.15 K, x2 = 0.5	1.83
292.15 K, x2 = 0.3333	1.23
303.15 K, x2 = 0.3333	1.65
303.15 K, x2 = 0.3636	1.82
303.15 K, x2 = 0.5263	1.93
303.15 K, x2 = 0.5556	1.33
304.15 K, x2 = 0.4762	2.42
304.15 K, x2 = 0.5	2.57
305.15 K, x2 = 0.4	2.03
305.15 K, x2 = 0.4348	2.24
309.15 K, x2 = 0.5556	1.57
312.65 K, x2 = 0.5263	2.46
314.15 K, x2 = 0.4348	2.69
314.65 K, x2 = 0.4	2.48
315.65 K, x2 = 0.3636	2.3
316.15 K, x2 = 0.3333	2.12
317.65 K, x2 = 0.4762	3.2
317.65 K, x2 = 0.5	3.3
320.15 K, x2 = 0.5556	2.21
321.15 K, x2 = 0.5263	3.01
323.15 K, x2 = 0.3333	2.46
323.15 K, x2 = 0.3636	2.64
323.15 K, x2 = 0.4	2.92
324.15 K, x2 = 0.4348	3.2
324.15 K, x2 = 0.4762	3.63
324.15 K, x2 = 0.5	3.79
330.15 K, x2 = 0.5556	2.71
331.15 K, x2 = 0.4	3.4
331.15 K, x2 = 0.5263	3.65
332.15 K, x2 = 0.4348	3.7
332.15 K, x2 = 0.4762	4.14
332.65 K, x2 = 0.5	4.37
333.15 K, x2 = 0.3333	2.93
334.15 K, x2 = 0.3636	3.18
341.15 K, x2 = 0.4348	4.28
342.15 K, x2 = 0.4	4.02
342.15 K, x2 = 0.4762	4.9
342.15 K, x2 = 0.5	5.03
342.15 K, x2 = 0.5263	4.39
343.15 K, x2 = 0.3333	3.38
343.15 K, x2 = 0.3636	3.64
344.15 K, x2 = 0.5556	3.63
350.65 K, x2 = 0.4	4.54
351.15 K, x2 = 0.4348	4.88
352.15 K, x2 = 0.5263	5.04
353.15 K, x2 = 0.3333	3.88
353.15 K, x2 = 0.3636	4.2
353.15 K, x2 = 0.4762	5.63
353.15 K, x2 = 0.5	5.79
353.15 K, x2 = 0.5556	4.27
361.15 K, x2 = 0.4	5.18
361.15 K, x2 = 0.4348	5.54
361.15 K, x2 = 0.4762	6.35
361.15 K, x2 = 0.5	6.43
363.15 K, x2 = 0.3333	4.45
363.15 K, x2 = 0.3636	4.8
363.15 K, x2 = 0.5263	5.91
364.15 K, x2 = 0.5556	5.09
370.15 K, x2 = 0.3333	4.82
370.15 K, x2 = 0.3636	5.19
371.15 K, x2 = 0.4	5.84
371.15 K, x2 = 0.4348	6.23
371.15 K, x2 = 0.4762	7.02
371.15 K, x2 = 0.5	7.19
372.15 K, x2 = 0.5263	6.56
374.15 K, x2 = 0.5556	5.89

Source: the CheMixHub ionic liquid set
